For one assay, the target named is T1, exTrkB (Homo sapiens, UniProt Q16620).
T1 construct: human TrkB receptor (exTrkB), residues 1−430, was cloned into the pCMV2 expression vector; made in house; host or cells: ExpiCHO-S cells
Nature of the assay: MST binding affinity (Kd) determination. As to conditions: non-binding compounds given as 0. The procedure: The gene encoding the extracellular domain of the human TrkB receptor (exTrkB), residues 1−430, was cloned into the pCMV2 expression vector. Protein expression was performed in suspension-cultivated mammalian ExpiCHO-S cells using the ExpiFectamine (Thermo Scientific, Thermo Fisher Scientific, Waltham, MA, USA) transfection reagent. The secreted protein was purified using a four-step protocol. Clarified culture medium was precipitated with ammonium sulfate added to a final concentration of 1.5 M and centrifuged (235,000× g, 60 min at 4 °C). The supernatant after centrifugation was applied on a HiTrap Phenyl column (GE Healthcare, Chicago, IL, USA) equilibrated with buffer A (25 mM Tris, 1 mM DTT; pH 7.5) with 1.5 M ammonium sulfate. Bound proteins were eluted with a linear gradient of buffer A. The eluted proteins were dialyzed overnight in buffer A and loaded on a CaptoQ ImpRes column (GE Healthcare) equilibrated with buffer A with 50 mM NaCl. The bound proteins were eluted with a linear gradient of buffer A with 1 M NaCl. The fractions containing exTrkB protein were pooled, and MnCl2 and CaCl2 (1mM final concentration each) were added. The sample was purified on a HiTrap Con A 4B column (GE Healthcare) equilibrated with buffer B (25 mM Tris, 0.5 M NaCl, 1 mM MnCl2, 1 mM CaCl2; pH 7.5) and eluted with buffer C (25 mM Tris, 0.1 M NaCl, 0.4 M α-D-glucopyranoside; pH 6.5). To improve the protein recovery, buffer C flow was paused nine times during elution. The eluted fractions were concentrated and purified by size-exclusion chromatography on a HiLoad 16/600 Superdex 200 column (GE Healthcare) in buffer A with 0.5 M NaCl. The protein samples were concentrated to 1 mg/mL, and buffer was exchanged (PBS; pH 7.4). Samples were frozen in liquid nitrogen and stored at −80 °C. The protein purity was estimated by SDS–PAGE followed by Coomassie Brilliant Blue staining. The protein concentration was determined from the absorption at 280 nm using an UV NanoDrop 1000 spectrophotometer (Thermo Scientific).
The exTrkB was labeled with a Monolith Protein Labeling Kit RED-NHS 2nd Generation (NanoTemper Technologies GmbH, Munich, Germany) according to the manufacturer’s protocol. The labelling efficiency was always determined spectrophotometrically with NanoPhotometer® NP80 (Impel) in line with the manufacturer’s recommendations. Labelled exTrkB protein was aliquoted and stored at −80 °C to avoid repeated freeze–thaw cycles. Before analysis, the exTrkB protein was thawed on ice and diluted with MST buffer (50 mM Tris pH = 8; 150 mM NaCl; 10 mM MgCl2; 0.1% Tween20) to the desired concentration.
For primary screening (single-point MST experiments for signal amplitude determination), each of the 987 screened compounds were diluted in MST buffer + 0.1% Tween20 to a final concentration of 0.5 mM. The tested compounds were mixed with exTrkB solution (the final concentration of exTrkB was 20 nM) and centrifuged (10,000× g, 4 min at 4 °C) to eliminate protein and compound aggregates. Before loading to capillaries (Monolith NT.115 Capillaries, NanoTemper Technologies GmbH), the samples were incubated for 5 min at 25 °C and then placed into the MST apparatus (Monolith, NanoTemper Technologies GmbH). The experiments were performed using nano-blue excitation, LED light adjusted to 20% excitation power, and MST power set to medium, and the fluorescence signal during thermophoresis was detected after 30 s. Single-point MST experiments were performed by the determination of the amplitude signal between the unbound and bound state between the molecule and exTrkB, which was analyzed using the MO.Control Software version 1.6 (NanoTemper Technologies GmbH). A reference sample containing only exTrkB and the equivalent DMSO concentration (v/v) was included in each individual MST experiment. At least three technical replicates were prepared for each of the tested compounds. A binding affinity study was performed for 113 of the selected compounds at 16 concentration points. […]

Assay [1] relates to RA-differentiated SH-SY5Y cells. Nature of the assay: Cytoprotection against MPP+-induced cytotoxicity. The format is cell-based. The note with it: MPP+ 0.5 mM, compounds 0.3, 1, 3 μM, BDNF 1, 10, 100 ng/mL, 72 h + 72 h. On the procedure: To differentiate SH-SY5Y, cells were seeded in a cell culture flask at a density of 10,000 cells/cm^2 in standard growth medium containing 10 μM retinoic acid (RA; MilliporeSigma) and cultured for 7 consecutive days. Then, differentiated cells were harvested by trypsinization (Trypsin-EDTA 1×, 3 min at 37 °C), centrifuged (250× g; 5 min at 25 °C) and counted. The desired experiment cells were seeded in differentiation medium (MEM:Ham’s F12 growth medium +10 μM RA) in multi-well plates at the following densities: 1,000,000 cells/well on a 6-well plate for lysate collection and immunoblot analysis, and 12,000 cells/well into a PDL-treated 96-well plate (BioCoat™, Corning Inc.) for neuroprotection experiments.
The experiment design was adopted from the article published by Presgraves et al., (2004), with the following modifications. Differentiated SH-SY5Y were prepared as described in Section 4.3.1. On the day of the experiment (Day 0), culture medium containing 10 μM RA was changed for treatment medium composed of MEM:HAM’S F12 (1:1 v/v), 1 × Antibiotic-Antimycotic, and 1 × MEM Non-Essential Amino Acids, with the FBS reduced to 0.5%. In this step, RealTime-Glo™ reagents (Promega, Madison, WI, USA) were added to the treatment medium (to a final concentration of 0.5 × ). Cell viability was measured after 1 h of incubation at 37 °C using a luminometer (VICTOR Light 1420-060) for normalization. Then, the tested compounds and BDNF were diluted in culturing medium as 2 × concentrate (final concentrations of 0.3, 1, and 3 μM for the small molecular compounds and 1, 10, and 100 ng/mL for BDNF) and added into wells for 72 h of incubation (volume, 100 μL/well). Then (Day 3), the treatment medium was replaced with fresh medium containing 0.5 × RealTime-Glo™ reagents (volume, 100 μL/well), and the cell viability was measured for normalization. Then, compounds and BDNF were added as 4 × concentrates (volume, 50 μL/well). In addition, MPP^+ was also diluted in treatment medium and added to the wells as a 4 × concentrate (final concentration, 0.5 mM; volume, 50 μL/well). The cells were incubated for a further 72 h at 37 °C. On Day 6, the cell viability was measured 1 h after replacing the medium with the medium containing 0.5 × RealTime-Glo™ (volume 100 μL/well). The experiments were performed with three biological independent replicates, and the final cell viability (endpoint, Day 6) was normalized to the normalized cell viability calculated on Day 3.

Another assay deals with T2, TrkB receptor (Rattus norvegicus, UniProt Q63604).
T2 construct: host or cells: SN56 T48 cell line
Nature of the assay: ELFI TrkB phosphorylation, orthosteric agonist mode, SN56 T48 cell line. The format is cell-based. As to conditions: TrkB phosphorylation (Tyr706), 15 min.

Setting [2] is: no orthosteric activity given as 0.

Entries after “also recorded” stand apart in the source; their conditions may differ.

The term Kd denotes a measure of binding affinity in units of concentration. In general, EC50 refers to the concentration giving half of the maximal effect.

T1 sequence (Q16620 32-430): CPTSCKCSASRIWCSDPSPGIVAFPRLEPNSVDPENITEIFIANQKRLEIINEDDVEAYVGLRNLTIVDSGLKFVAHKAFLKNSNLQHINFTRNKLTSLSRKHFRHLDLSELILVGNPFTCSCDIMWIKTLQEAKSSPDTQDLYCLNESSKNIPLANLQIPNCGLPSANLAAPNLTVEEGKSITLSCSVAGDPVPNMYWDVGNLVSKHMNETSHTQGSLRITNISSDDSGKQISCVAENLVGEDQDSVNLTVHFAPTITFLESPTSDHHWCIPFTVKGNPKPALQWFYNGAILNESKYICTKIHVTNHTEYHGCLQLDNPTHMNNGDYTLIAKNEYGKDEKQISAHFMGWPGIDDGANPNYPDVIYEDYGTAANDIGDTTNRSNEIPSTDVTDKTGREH
T2 sequence (Q63604 32-821): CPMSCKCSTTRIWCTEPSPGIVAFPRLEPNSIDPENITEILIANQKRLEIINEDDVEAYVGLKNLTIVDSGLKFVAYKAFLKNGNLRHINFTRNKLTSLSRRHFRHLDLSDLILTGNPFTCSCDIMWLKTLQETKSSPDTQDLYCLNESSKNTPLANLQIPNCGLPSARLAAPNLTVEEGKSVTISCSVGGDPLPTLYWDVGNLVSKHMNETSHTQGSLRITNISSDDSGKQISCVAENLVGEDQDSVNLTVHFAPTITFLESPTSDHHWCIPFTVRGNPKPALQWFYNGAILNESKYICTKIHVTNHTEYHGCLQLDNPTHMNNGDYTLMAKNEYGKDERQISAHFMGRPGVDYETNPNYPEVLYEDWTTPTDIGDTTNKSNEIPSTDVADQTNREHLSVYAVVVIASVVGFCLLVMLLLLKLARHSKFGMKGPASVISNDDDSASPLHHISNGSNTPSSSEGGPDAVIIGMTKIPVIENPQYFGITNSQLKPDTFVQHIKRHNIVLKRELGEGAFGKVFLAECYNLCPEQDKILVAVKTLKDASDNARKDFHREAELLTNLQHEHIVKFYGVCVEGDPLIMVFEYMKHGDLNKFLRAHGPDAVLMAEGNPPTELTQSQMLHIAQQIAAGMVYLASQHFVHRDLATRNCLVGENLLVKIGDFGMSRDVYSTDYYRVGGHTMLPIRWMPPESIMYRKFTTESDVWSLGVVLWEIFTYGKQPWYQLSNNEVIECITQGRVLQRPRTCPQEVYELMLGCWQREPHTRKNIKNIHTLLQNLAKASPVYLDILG

On to `O=c1cc(-c2ccccc2)oc2c(O)c(O)ccc12` [7,8-DHF, 7,8-dihydroxyflavone], for which the Kd at exTrkB is 1300 nM. In assay [1], the “Cytoprotective effect (cell viability)” value was “not able to protect; also recorded: not able to confirm any cytoprotective action”.
Turning to `O=C1C(O)=C(c2c[nH]c3ccccc23)C(=O)C(O)=C1c1c[nH]c2ccccc12` [CPL503052, didemethylasterriquinone D], on exTrkB, the Kd was found to be 2600 nM. In addition, the results for the “Cytoprotective effect (cell viability)” value in assay [1] and in assay [1] (listed as CPL503051) were “no cytoprotective properties” and “did not demonstrate any cytoprotective effect”, respectively.
In turn, `C=CC(C)(C)c1[nH]c2ccccc2c1C1=C(O)C(=O)C(c2c[nH]c3c(CC=C(C)C)cccc23)=C(O)C1=O` [DMAQ-B1] came in with a Kd at exTrkB of 5600 nM. In addition, in assay [1], the “Cytoprotective effect (cell viability)” value is recorded as “did not demonstrate any cytoprotective effect”. For the same molecule, the EC50 at TrkB receptor (setting [2]) stood at 5000 nM.

B1: BDNF: Brain-derived neurotrophic factor, endogenous TrkB receptor agonist (protein, UniProt P23560 19-247, looked up)
Neurotrophic factor BDNF …: APMKEANIRGQGGLAYPGVRTHGTLESVNGPKAGSRGLTSLADTFEHVIEELLDEDQKVRPNEENNKDADLYTSRVMLSSQVPLEPPLLFLLEEYKNYLDAANMSMRVRRHSDPARRGELSVCDSISEWVTAADKKTAVDMSGGTVTVLEKVPVSKGQLKQYFYETKCNPMGYTKEGCRGIDKRHWNSQCRTTQSYVRALTMDSKKRIGWRFIRIDTSCVCTLTIKRGR
For B1, binding in the assay with exTrkB was characterised by a dissociation constant (Kd) of 93 nM. In addition, in assay [1], the “Cytoprotective effect (cell viability)” value was “dose-dependent cytoprotective effect”. For the same molecule, the EC50 with TrkB receptor was 3.7 nM; in the assay with TrkB receptor (setting [2]), 4 nM.

The values above are taken from PMC8398766, “Do Small Molecules Activate the TrkB Receptor in the Same Manner as BDNF? Limitations of Published TrkB Low Molecular Agonists and Screening for Novel TrkB Orthosteric Agonists” (Pharmaceuticals, 2021).
